The values below come from patent publication US8669265B2, “Hydrated form of erlotinib free base and a process for preparation of erlotinib hydrochloride polymorph form a substantially free of polymorph form B” (Hetero Research Foundation, priority 2007, dated 2014).

Series [1] is described as follows: Particle size distribution by laser diffraction (Sympatec Helos, 1 bar dispersive pressure). It is filed as physicochemical. Conditions: isolated crystalline product of the example; hydrochloride. From the text:
The term “Particle Size Distribution (P.S.D.)” means the cumulative volume size distribution of equivalent spherical diameters as determined by laser diffraction at 1 bar dispersive pressure in a Sympatec Helos equipment. “Mean particle size distribution, i.e., d(0.5)” correspondingly, means the median of said particle size distribution.

A short description of series [2]: Hygroscopicity and storage stability of the crystalline form (stated in words). It is filed as physicochemical.

With `C#Cc1cccc(Nc2ncnc3cc(OCCOC)c(OCCOC)cc23)c1.Cl` [Reference Example 5, N-(3-ethynylphenyl)-6,7-bis(2-methoxyethoxy)-4-quinazolinamine hydrochloride], in series [1], the “90 volume-% of the particles (D90)” value came out at 4.61 μm and the “Mean particle size (D50)” value was 3.50 μm. With `C#Cc1cccc(Nc2ncnc3cc(OCCOC)c(OCCOC)cc23)c1` [crystalline erlotinib hydrate, erlotinib hydrate], in series [2], the Hygroscopicity result is listed as “non-hygroscopic” and the Storage stability result was “storage stable over the time”. As for `C#Cc1cccc(Nc2ncnc3cc(OCCOC)c(OCCOC)cc23)c1.Cl` [Reference Example 2, N-(3-ethynylphenyl)-6,7-bis(2-methoxyethoxy)-4-quinazolinamine hydrochloride], the “90 volume-% of the particles (D90)” value in series [1] stood at 7.74 μm. On to `C#Cc1cccc(Nc2ncnc3cc(OCCOC)c(OCCOC)cc23)c1.Cl` [Reference Example 1, N-(3-ethynylphenyl)-6,7-bis(2-methoxyethoxy)-4-quinazolinamine hydrochloride], for which, in series [1], the “90 volume-% of the particles (D90)” value is reported as 4.53 μm and the “Mean particle size (D50)” value stood at 3.42 μm.

As to `C#Cc1cccc(Nc2ncnc3cc(OCCOC)c(OCCOC)cc23)c1.Cl` [Example 6, N-(3-ethynylphenyl)-6,7-bis(2-methoxyethoxy)-4-quinazolinamine hydrochloride], in series [1], the “90 volume-% of the particles (D90)” value was 18.96 μm and the “Mean particle size (D50)” value came out at 5.48 μm. With `C#Cc1cccc(Nc2ncnc3cc(OCCOC)c(OCCOC)cc23)c1.Cl` [N-(3-ethynylphenyl)-6,7-bis(2-methoxyethoxy)-4-quinazolinamine hydrochloride], the Storage stability entry in series [2] is reported as “stable over the time”.
